PMC5352362, “Molecular and functional evaluation of a novel HIF inhibitor, benzopyranyl 1,2,3-triazole compound” (Oncotarget, 2016)
“Also recorded” adds a separate entry of the source.

What was measured:
[1] = tested on: HIF-1 (5xHRE-Luc reporter in HEK-293 cells); test: Dual-luciferase HRE reporter assay under hypoxia; assay type: cell-based; conditions: Homo sapiens, HEK293, hypoxia 1% O2, 24 h, compared to hypoxic control, read-out: inhibition of hypoxia-induced HRE Luc reporter activity (HIF-1α transactivation)
Protocol: To identify active inhibitors of HIF-1α, a cell-based reporter assay was performed. HEK-293 cells were co-transfected with pGL3-5xHRE-Luc plasmid harboring five copies of hypoxia responsive element (HRE) from the VEGF gene promoter, and with pRL-SV40 encoding Renilla genes. The HRE-containing promoter of the HIF-1 target genes is regulated by HIF-1 activation. Transfected cells were treated with chemical compounds at 1 μM and were exposed to hypoxic conditions (1% O2) for 24 h, and then were assayed. Echinomycin (E), a well-known HIF-1α inhibitor, was used as a positive control. Compared to normoxic control conditions, hypoxia increased this luciferase reporter's activity by approximately three-fold.
Figure 1 Screening of 144 compounds from an in-house chemical library for inhibition of HIF-1 activity HEK-293 cells were co-transfected with luciferase reporter plasmids (pGL3-HRE-luciferase) and Renilla vector (pRL-SV40). Cells were exposed to hypoxic conditions in the presence or absence of chemicals for 24 h, and were then lysed for assays of luciferase activity. […]
HEK-293 cells were seeded onto 96-well plates at a density of 5 × 10^3 cells/well, and allowed to attach for 24 h. […] Firefly luminescence was measured using a microplate reader (Infinite M200 Pro, TECAN, Männedorf, Switzerland). […] Renilla luminescence was measured using a microplate reader. […]

[2] = tested on: Lewis lung carcinoma (LLC) cells; test: Lewis lung carcinoma allograft in C57BL/6J mice with immunohistochemistry; assay type: in vivo, mouse
Protocol: HIF-1α is synthesized by growth factor signaling pathways, such as those of EGFR [30] [31]. Inhibition of HIF-1α in its pathways of synthesis, as well as in its pathway of degradation, would seem to make for a more efficient anti-cancer/anti-angiogenesis treatment. To confirm this, we performed a tumor allogaft experiment using Lewis lung carcinoma (LLC) cells. 1 × 10^6 LLC cells were inoculated into the mouse flank subcutaneously (s.c.), and treatment with Compound 12 (5 mg/kg) and/or gefitinib (an EGFR inhibitor, 50 mg/kg), via intraperitoneal (i.p.) administration, was performed every other day for 20 days. At Day 20, mice were sacrificed and tumor tissue was fixed in formaldehyde for 1 h for further histological examination. […] To confirm the effect of Compound 12 on angiogenesis, we analyzed angiogenesis using the Matrigel plug assay. […] To confirm the effects of Compound 12 on anti-angiogenesis, we sectioned the tumor tissues to determine microvessel density (MSD) via immunohistochemistry (using CD31 antibody).
Figure 6 Compound 12 suppressed allogaft tumor growth and enhanced the effects of a chemotherapeutic agent (A, B) Lewis lung carcinoma cells were inoculated into flanks of C57BL/6J mice (Day 0). From two days after inoculation, mice were treated intraperitoneally with Compound 12 (5 mg/kg body weight) and gefitinib (50 mg/kg body weight), three times a week, for 18 days and then sacrificed. Tumor size (A) and tumor weight (B) were measured three times a week and on the final day, respectively. Tumor masses were photographed and shown in box below the graph. **P < 0.05 versus control group. (C) Matrigel was treated with DMSO, Compound 12 (100 nM), and gefitinib (5 μM) and inoculated in the flank of C57BL/6J mice. After 10 days matrigel plug was removed and photographed. The content of hemoglobin was quantified and graphed. (D) Tumor tissue sections (10 μm) indicated were stained with H&E and immunostained with anti-CD31 antibody to detect microvessel density; CD31+ cell percentages were then calculated and graphed. Scale bar, 100 μm. **P < 0.05 versus control group. (E) Images and quantitative comparisons (graph) for hypoxic regions, immunostained CA9 protein, and microvessels (CD31+ cells) in tumor center regions are shown. Scale bar, 100 μm. **P < 0.05 versus control group. (F) Images and quantitative comparisons (graph) for Ki67+ proliferating cells in tumor center regions are shown. Scale bar, 100 μm. **P < 0.05 versus control group.
We determined levels of hypoxia in tissues via: 1) antibodies against the hypoxic cell marker pimonidazole (PIMO), and 2) checking expression levels of carbonic anhydrase (CA9), a downstream target of HIF-1.
LLC cells (1 × 10^6) were injected subcutaneously into the flanks of 6-week-old C57BL/6J mice (Day 0)(SLC, Japan). Tumor size and body weight were measured 3 time a week. Tumor tissues were removed at day 20 after completion of injection of vehicle or drugs and fixed with 4% paraformaldehyde (PFA). After tissue processing for frozen sample preparation protocol, samples were embedded in OCT compound and frozen quickly by liquid nitrogen. Frozen blocks were cut into 10 μm sections and stained with hematoxylin and eosin (H&E) for light microscopy. Additional tissue sections for immunohistochemistry were blocked with 5% goat serum in PBST (0.03% Triton X-100 in PBS) and then incubated for 3 h at RT with following primary antibodies, anti-CD31 and anti-Ki67. To detect the hypoxic area in the tumors, Hypoxyprobe-1™ (60 mg/kg, Natural Pharmacia International) was iv injected 90 min before tissue fixation. Tumors were harvested, sectioned and stained with FITC-conjugated anti-Hypoxyprobe antibody.

For `COc1ccc(-c2cn(CC3(C)C=Cc4cc([N+](=O)[O-])ccc4O3)nn2)cc1` (stereo not drawn) [Compound 12, 4-(4-methoxyphenyl)-1-((2-methyl-6-nitro-2H-chromen-2-yl)methyl)-1H-1,2,3-triazole], the inhibition at 1 µM [1] was 50%, the “PIMO/CA9 levels in tumors, Compound 12 combined with gefitinib” value ([2]; LLC allograft tumor sections) was “decreased synergistically” and the “levels of PIMO and CA9 in tumors, single agent” value ([2]; LLC allograft tumor sections) was “significantly diminished”. The “microvessel density (MSD), CD31, Compound 12 combined with gefitinib” value ([2]; LLC allograft tumor sections) was “synergistically decreased MSD”, the “microvessel density (MSD), CD31, single agent” value ([2]; LLC allograft tumor sections) was “significantly decreased MSD” and the “cells expressing Ki-67 protein in tumors” value ([2]; LLC allograft tumor sections, single agent) was “significantly decreased”. For the same molecule, the “tumor growth, single agent” value ([2]; LLC allograft, C57BL/6J mice, i.p., Compound 12 5 mg/kg, gefitinib 50 mg/kg) was “inhibited tumor growth significantly”, the tumor weight ([2]; LLC allograft, i.p., 5 mg/kg, final day) was “significantly decreased” and the “tumor growth, Compound 12 combined with gefitinib” value ([2]; LLC allograft, i.p., Compound 12 5 mg/kg plus gefitinib 50 mg/kg) was “significantly inhibited tumor growth and angiogenesis; also recorded: suppressed tumor growth more effectively than did either drug alone”.
